Data reported in patent US20260034063A1 (Opella Healthcare Group SAS, priority 2023, published 2026).

Legend:
[1] = test system: Bacteria; Fungus and yeast; assay: Preservative system efficacy test (PET), summary statements; type: cell-based; conditions: for preservative system efficacy test (PET) results: in fexofenadine suspension with EDTA, Ph. Eur and USP criteria
Procedure: (§1) To generate the formulations, the parabens of the existing formulations were replaced with the tested putative paraben replacement. The formulation stayed otherwise the same. As such, all of the preservatives were tested in combination with EDTA.
(§2) Further studies to test use of potassium sorbate for efficacy as an antimicrobial preservative were carried out in the formula with potassium sorbate in order to confirm the minimum concentration of use and definition of the specification, furthering the American and European monographs, in order to meet the different regulatory requirements of the countries in which this new formula will be submitted. The stability studies were conducted for a period of 36 months.

[2] = Fraction of fexofenadine in zwitterion form at suspension pH; type: physicochemical; conditions: pH between 5.8 and 7.0
Excerpt: The conversion of anhydrous form to the zwitterion shape is controlled by the pH of the suspension, which is monitored throughout the manufacture of the product, and controlled by the addition of monobasic sodium phosphate buffers and dibasic sodium phosphate.

[3] = test system: Bacteria; Fungus and yeast; assay: Preservative efficacy test, criteria of the European pharmacopoeia (Ph. Eur 5.1.3); type: cell-based
Procedure: as §1, §2

[4] = test system: Bacteria; Fungus and yeast; assay: Preservative efficacy test, criteria of the US Pharmacopoeia (USP <51>); type: cell-based; conditions: American pharmacopoeia criteria
Procedure: as §1, §2

[5] = stability studies conducted for 36 months
Procedure: as §2

SMILES: CCCCCCCCCCCC[N+](C)(C)CCOc1ccccc1 [Domiphen bromide]
- preservative system efficacy test (PET) results [1]: good

SMILES: CC(C)(C(=O)O)c1ccc(C(O)CCCN2CCC(C(O)(c3ccccc3)c3ccccc3)CC2)cc1.Cl (stereo not drawn) [Fexofenadine, 4-[1-hydroxy-4-[4-(hydroxydiphenylmethyl)-1-piperidinyl]-butyl]-α,α-dimethyl benzeneacetic acid hydrochloride]
- fexofenadine in the form of zwitterion [2]: 97%

SMILES: C/C=C/C=C/C(=O)[O-].[K+] [Potassium sorbate]
- point of failure (concentration) [3]: 0.3%
- point of failure (concentration) [4]: 0.10
- concentration considered effective as a preservative ([1]; criteria of both pharmacopoeias, fexofenadine suspension with EDTA): 0.4%
- effective as preservative until (stability time) [5]: 36 months

SMILES: O=C([O-])c1ccccc1.[Na+] [Sodium Benzoate, Sodium benzoate]
- preservative system efficacy test (PET) results [1]: satisfactory
